Results on 1 compound are retold here after publication PMC7933930, “Development of a small molecule that corrects misfolding and increases secretion of Z α1‐antitrypsin” (EMBO Molecular Medicine, 2021).

One series deals with human hepatocytes. In words: Hepatocyte clearance, human. The format is in vitro ADME. On the procedure:
Williams E media supplemented with 2 mM L‐glutamine and 25 mM HEPES and test compound (final compound concentration 0.5 µM; final DMSO concentration 0.25% v/v) were preincubated at 37°C prior to the addition of a suspension of cryopreserved pooled hepatocytes (final cell density 0.5 × 10^6 viable cells/ml) to initiate the reaction. The final incubation volume was 500 µl. The reactions were stopped by transferring 50 µl of incubate to 100 µl acetonitrile containing internal standard at the appropriate time points (0, 5, 10, 20, 40 and 60 min, 0, 10, 20, 40, 60 and 120 min or 0, 20, 40, 60, 120 and 240 min). The control (lysed cells or vehicle) was incubated for 60, 120 or 240 min only. The termination plates were centrifuged at 2,500 rpm at 4°C for 30 min to precipitate the protein. Following protein precipitation, the sample supernatants were analysed by LC‐MS/MS. From a plot of loge peak area ratio (compound peak area/internal standard peak area) against time, the gradient of the line was determined and half‐life (t½) and intrinsic clearance (CLint) were calculated.

The next series concerns the target Adrenergic α2C (Homo sapiens, UniProt P18825). Description: Off‐target panel: Adrenergic α2C. Format: cell-based. Here is the method:
(§1) GSK716 selectivity and PK properties were profiled in order to investigate the suitability of GSK716 for progression into in vivo studies and the potential for taking it forward as a clinical candidate for testing in humans. Since GSK716 results in loss of inhibitory activity of α1‐antitrypsin, the effect of the compound was assessed on other closely related serpins. […] Furthermore, there were no off‐target effects in a panel of assays considered predictive of known safety liabilities that precluded further development of GSK716 (Table EV1).

The next series has as its target Adrenergic β2 (Homo sapiens, UniProt P07550). In words: Off‐target panel: Adrenergic β2. Conditions: read-out: Mean (PXC50). Format: cell-based. Here is the method:
as §1

The target in the next series is Cannabinoid CB1 (Homo sapiens, UniProt P21554). Description: Off‐target panel: Cannabinoid CB1 (DRX). The format is cell-based. On the procedure:
as §1

Another series has as its target Dopamine D1 (Homo sapiens, UniProt P21728). Description: Off‐target panel: Dopamine D1. Format: cell-based. On the procedure:
as §1

In the next series the target is Monoamine oxidase A (Homo sapiens, UniProt P21397). In words: Off‐target panel: Monoamine oxidase A. The format is biochemical. Conditions: Inhibition, read-out: Mean (PXC50). Here is the method:
as §1

A further series has as its target T1, Muscarinic M2 (Homo sapiens, UniProt P08172).
T1 sequence (P08172 1-466): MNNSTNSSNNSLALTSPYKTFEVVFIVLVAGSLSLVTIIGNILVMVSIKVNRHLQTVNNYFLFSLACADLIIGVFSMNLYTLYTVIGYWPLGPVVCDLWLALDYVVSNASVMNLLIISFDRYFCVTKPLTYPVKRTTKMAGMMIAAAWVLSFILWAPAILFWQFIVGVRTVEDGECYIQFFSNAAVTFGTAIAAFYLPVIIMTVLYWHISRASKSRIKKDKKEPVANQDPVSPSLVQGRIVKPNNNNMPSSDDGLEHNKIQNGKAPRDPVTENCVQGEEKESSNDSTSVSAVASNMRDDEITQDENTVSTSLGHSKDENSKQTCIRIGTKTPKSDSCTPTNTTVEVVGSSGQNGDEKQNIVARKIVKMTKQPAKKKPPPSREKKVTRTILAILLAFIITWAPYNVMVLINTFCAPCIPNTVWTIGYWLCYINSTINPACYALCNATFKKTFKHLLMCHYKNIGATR
In words: Off‐target panel: Muscarinic M2. Format: cell-based. Here is the method:
as §1

The target in series [1] is Norepinephrine transporter (Homo sapiens, UniProt P23975). In words: Off‐target panel: Norepinephrine transporter. Format: cell-based. On the procedure:
as §1

Another series has as its target PDE3A (Homo sapiens, UniProt Q14432). In words: Off‐target panel: PDE3A. Format: biochemical. Conditions: Inhibition, read-out: Mean (PXC50). Here is the method:
as §1

The target of a further series is T2, Serotonin 5HT3 (Homo sapiens, UniProt P46098).
T2 sequence (P46098 24-478): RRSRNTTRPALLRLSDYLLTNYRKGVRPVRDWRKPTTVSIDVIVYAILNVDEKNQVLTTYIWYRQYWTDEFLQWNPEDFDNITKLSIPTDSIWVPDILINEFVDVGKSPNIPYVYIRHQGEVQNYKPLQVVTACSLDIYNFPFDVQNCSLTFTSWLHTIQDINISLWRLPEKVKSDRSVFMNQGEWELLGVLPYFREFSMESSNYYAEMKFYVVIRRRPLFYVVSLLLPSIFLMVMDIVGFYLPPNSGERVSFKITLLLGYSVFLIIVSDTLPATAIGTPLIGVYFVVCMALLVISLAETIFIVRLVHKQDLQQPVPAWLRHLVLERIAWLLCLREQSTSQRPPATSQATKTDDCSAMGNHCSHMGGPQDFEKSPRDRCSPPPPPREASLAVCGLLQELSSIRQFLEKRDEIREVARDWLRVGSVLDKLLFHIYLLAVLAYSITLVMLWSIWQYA
In words: Off‐target panel: Serotonin 5HT3. The format is cell-based. Here is the method: as §1

Chain of Adrenergic β2 (P07550 whole entry): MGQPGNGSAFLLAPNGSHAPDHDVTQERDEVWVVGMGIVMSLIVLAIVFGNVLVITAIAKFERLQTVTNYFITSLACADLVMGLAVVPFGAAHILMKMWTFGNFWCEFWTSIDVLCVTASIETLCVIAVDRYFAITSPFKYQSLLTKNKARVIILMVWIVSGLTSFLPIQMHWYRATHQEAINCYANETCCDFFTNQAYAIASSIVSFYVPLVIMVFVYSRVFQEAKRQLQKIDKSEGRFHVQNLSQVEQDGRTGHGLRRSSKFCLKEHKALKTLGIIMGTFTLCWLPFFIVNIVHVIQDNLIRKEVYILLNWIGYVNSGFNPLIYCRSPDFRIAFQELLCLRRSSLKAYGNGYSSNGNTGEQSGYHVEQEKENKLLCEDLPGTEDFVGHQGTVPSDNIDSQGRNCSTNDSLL
Chain of PDE3A (Q14432 whole entry, species assumed): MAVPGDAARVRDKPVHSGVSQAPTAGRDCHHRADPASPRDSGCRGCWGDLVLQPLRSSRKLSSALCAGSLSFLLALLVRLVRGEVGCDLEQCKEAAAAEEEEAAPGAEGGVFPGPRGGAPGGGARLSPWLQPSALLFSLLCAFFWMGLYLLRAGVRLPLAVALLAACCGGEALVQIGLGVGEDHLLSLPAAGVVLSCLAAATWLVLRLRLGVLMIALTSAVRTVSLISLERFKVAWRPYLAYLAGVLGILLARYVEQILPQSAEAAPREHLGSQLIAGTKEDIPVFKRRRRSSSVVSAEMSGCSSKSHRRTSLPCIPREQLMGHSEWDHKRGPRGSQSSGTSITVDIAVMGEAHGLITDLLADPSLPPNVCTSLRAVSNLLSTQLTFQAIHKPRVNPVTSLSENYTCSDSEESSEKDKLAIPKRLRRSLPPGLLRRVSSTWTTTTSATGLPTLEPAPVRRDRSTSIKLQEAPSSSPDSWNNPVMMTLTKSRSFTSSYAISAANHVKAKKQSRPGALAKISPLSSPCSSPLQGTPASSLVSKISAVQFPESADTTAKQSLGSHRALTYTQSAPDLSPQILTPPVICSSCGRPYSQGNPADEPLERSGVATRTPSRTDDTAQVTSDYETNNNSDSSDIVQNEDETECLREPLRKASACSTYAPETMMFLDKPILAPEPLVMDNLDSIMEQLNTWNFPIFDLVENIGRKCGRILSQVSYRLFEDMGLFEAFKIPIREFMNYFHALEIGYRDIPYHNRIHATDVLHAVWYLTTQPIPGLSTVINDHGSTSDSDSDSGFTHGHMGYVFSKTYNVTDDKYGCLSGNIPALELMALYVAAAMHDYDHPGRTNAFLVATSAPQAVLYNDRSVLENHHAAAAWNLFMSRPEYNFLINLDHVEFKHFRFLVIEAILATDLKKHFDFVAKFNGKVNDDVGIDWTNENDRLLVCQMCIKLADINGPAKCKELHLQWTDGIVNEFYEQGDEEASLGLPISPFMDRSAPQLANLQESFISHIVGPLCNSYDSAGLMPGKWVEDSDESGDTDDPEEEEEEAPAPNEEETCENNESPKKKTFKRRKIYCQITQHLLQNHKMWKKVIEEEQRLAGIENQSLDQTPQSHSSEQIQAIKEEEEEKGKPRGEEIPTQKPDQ
Chain of Cannabinoid CB1 (P21554 whole entry): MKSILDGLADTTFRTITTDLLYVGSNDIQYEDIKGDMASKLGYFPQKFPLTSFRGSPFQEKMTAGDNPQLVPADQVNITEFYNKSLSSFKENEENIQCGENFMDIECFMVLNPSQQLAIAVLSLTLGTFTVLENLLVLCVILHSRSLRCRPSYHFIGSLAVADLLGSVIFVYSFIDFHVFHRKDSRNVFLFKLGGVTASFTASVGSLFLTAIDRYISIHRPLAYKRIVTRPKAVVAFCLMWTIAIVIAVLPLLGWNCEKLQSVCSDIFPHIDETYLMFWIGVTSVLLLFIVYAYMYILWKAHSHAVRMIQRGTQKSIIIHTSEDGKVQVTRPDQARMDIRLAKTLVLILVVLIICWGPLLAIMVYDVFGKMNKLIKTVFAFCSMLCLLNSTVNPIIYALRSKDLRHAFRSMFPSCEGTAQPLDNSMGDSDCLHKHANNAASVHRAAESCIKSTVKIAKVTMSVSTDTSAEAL
Chain of Norepinephrine transporter (P23975 whole entry, species assumed): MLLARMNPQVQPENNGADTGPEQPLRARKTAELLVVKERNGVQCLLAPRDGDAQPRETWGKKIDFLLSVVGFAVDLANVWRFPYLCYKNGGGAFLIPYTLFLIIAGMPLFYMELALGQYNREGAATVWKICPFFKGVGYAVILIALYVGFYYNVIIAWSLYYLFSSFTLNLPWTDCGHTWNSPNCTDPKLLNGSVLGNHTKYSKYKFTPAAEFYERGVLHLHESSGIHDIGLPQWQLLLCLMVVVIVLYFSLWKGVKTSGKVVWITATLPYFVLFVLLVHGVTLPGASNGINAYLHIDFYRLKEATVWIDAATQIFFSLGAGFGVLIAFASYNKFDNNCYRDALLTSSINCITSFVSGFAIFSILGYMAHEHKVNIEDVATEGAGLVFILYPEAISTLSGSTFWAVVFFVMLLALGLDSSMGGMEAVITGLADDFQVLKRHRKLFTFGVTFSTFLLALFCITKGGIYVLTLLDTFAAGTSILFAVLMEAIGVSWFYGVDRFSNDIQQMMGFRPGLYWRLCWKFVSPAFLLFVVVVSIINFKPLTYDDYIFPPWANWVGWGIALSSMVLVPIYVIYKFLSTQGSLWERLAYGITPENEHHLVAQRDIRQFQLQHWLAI
Chain of Dopamine D1 (P21728 whole entry): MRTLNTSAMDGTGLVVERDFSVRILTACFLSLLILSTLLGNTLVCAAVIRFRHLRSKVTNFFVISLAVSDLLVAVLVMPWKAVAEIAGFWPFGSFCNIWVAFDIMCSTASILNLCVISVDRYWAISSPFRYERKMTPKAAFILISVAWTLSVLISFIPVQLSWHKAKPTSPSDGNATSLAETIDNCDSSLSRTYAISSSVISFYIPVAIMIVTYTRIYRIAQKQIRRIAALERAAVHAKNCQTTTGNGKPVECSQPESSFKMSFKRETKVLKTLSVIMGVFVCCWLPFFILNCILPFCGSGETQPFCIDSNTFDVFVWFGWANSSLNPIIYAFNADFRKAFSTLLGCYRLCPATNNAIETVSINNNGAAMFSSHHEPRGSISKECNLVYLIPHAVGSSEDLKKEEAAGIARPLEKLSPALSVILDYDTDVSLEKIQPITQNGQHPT
Chain of Adrenergic α2C (P18825 whole entry): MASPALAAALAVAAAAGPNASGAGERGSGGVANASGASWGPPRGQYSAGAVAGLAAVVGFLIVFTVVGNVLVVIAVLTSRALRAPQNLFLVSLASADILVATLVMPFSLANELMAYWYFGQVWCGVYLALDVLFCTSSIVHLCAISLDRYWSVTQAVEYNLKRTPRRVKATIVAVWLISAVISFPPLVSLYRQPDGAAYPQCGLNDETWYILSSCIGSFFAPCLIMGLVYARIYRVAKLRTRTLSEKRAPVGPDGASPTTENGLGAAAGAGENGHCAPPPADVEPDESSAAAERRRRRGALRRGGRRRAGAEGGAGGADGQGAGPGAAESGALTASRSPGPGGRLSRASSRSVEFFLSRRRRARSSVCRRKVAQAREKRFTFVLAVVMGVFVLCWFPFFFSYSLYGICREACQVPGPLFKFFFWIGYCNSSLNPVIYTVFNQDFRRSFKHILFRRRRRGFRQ
Chain of Monoamine oxidase A (P21397 whole entry): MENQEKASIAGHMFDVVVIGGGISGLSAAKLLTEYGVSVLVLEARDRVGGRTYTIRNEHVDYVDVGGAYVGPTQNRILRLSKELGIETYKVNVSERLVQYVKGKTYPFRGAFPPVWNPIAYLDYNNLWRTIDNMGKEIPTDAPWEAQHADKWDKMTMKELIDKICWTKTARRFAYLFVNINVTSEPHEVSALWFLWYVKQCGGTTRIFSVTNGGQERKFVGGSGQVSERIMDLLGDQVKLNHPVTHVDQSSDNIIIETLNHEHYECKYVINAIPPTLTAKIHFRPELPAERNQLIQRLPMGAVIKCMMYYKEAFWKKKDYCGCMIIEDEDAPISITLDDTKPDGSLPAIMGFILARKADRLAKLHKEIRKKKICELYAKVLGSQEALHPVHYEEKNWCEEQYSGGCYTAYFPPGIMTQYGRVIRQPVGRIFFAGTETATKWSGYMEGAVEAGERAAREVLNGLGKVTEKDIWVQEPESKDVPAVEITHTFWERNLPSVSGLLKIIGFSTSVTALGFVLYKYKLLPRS

As to `CCC[C@@H](NC(=O)c1cccc2c1CC(=O)N2)[C@@H](O)c1cccc(F)c1C` [GSK716], the “metabolic clearance in human hepatocytes” value with human hepatocytes was 0.31 ml/min/g tissue. The EC50 is above 100 µM on Adrenergic α2C; above 100 µM on Adrenergic β2 (Agonist); above 100 µM at Cannabinoid CB1; above 50.1 µM on Muscarinic M2; above 50.1 µM on Serotonin 5HT3. Also, the IC50 was above 100 µM at Adrenergic β2 (Antagonist); above 100 µM at Dopamine D1; above 100 µM on Monoamine oxidase A; above 50.1 µM against Muscarinic M2; above 100 µM in [1]; above 100 µM at PDE3A. Also, the IC50 on Serotonin 5HT3 was 31.6 µM.
